Laboratory results published in ChEMBL document CHEMBL1909294, “Translating clinical findings into knowledge in drug safety evaluation--drug induced liver injury prediction system (DILIps)” (PLoS Comput Biol, 2011).

Tests used:
[1] = tested on: Hepatotoxicity;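 on HepSE Combined Scores: combined hepatic side effect score as listed in the training data of the Drug Induced Liver Injury Prediction System (DILIps)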;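 on HepSE cholecystitis: Cholecystitis-related hepatic side effect score drawn from the DILIps (drug-induced liver injury prediction) training data set; call rule not given here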;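 on HepSE elevated liver function tests: hepatic side effect score for raised liver function tests, as recorded in the DILIps training set used for predicting drug-induced liver injury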;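 on HepSE hepatic necrosis: score of hepatic side effects for hepatic necrosis, drawn from the training data of DILIps, a prediction system for drug-induced liver injury; call rule not given here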;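 on HepSE hepatomegaly: hepatic side effect score for hepatomegaly, taken from the training set of the DILIps drug-induced liver injury prediction system; call rule not given here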;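 on HepSE liver fatty: hepatic side effect score for fatty liver, taken from the DILIps training set for predicting drug-induced liver injury; call rule not given here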
[2] = tested on: Hepatotoxicity; remark: listed apart in the source;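 on HepSE Combined Scores: combined hepatic side effect score as listed in the training data of the Drug Induced Liver Injury Prediction System (DILIps)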;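 on HepSE cholecystitis: Cholecystitis-related hepatic side effect score drawn from the DILIps (drug-induced liver injury prediction) training data set; call rule not given here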;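 on HepSE elevated liver function tests: hepatic side effect score for raised liver function tests, as recorded in the DILIps training set used for predicting drug-induced liver injury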;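 on HepSE hepatic necrosis: score of hepatic side effects for hepatic necrosis, drawn from the training data of DILIps, a prediction system for drug-induced liver injury; call rule not given here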;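 on HepSE hepatomegaly: hepatic side effect score for hepatomegaly, taken from the training set of the DILIps drug-induced liver injury prediction system; call rule not given here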;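 on HepSE liver fatty: hepatic side effect score for fatty liver, taken from the DILIps training set for predicting drug-induced liver injury; call rule not given here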
[3] = tested on: Hepatotoxicity; remark: listed apart in the source;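 on HepSE Combined Scores: combined hepatic side effect score as listed in the training data of the Drug Induced Liver Injury Prediction System (DILIps)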;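 on HepSE cholecystitis: Cholecystitis-related hepatic side effect score drawn from the DILIps (drug-induced liver injury prediction) training data set; call rule not given here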;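 on HepSE elevated liver function tests: hepatic side effect score for raised liver function tests, as recorded in the DILIps training set used for predicting drug-induced liver injury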;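 on HepSE hepatic necrosis: score of hepatic side effects for hepatic necrosis, drawn from the training data of DILIps, a prediction system for drug-induced liver injury; call rule not given here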;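 on HepSE hepatomegaly: hepatic side effect score for hepatomegaly, taken from the training set of the DILIps drug-induced liver injury prediction system; call rule not given here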;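 on HepSE liver fatty: hepatic side effect score for fatty liver, taken from the DILIps training set for predicting drug-induced liver injury; call rule not given here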
[4] = tested on: Hepatotoxicity; remark: listed apart in the source;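 on HepSE cholecystitis: Cholecystitis-related hepatic side effect score drawn from the DILIps (drug-induced liver injury prediction) training data set; call rule not given here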;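 on HepSE elevated liver function tests: hepatic side effect score for raised liver function tests, as recorded in the DILIps training set used for predicting drug-induced liver injury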;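 on HepSE hepatic necrosis: score of hepatic side effects for hepatic necrosis, drawn from the training data of DILIps, a prediction system for drug-induced liver injury; call rule not given here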;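 on HepSE hepatomegaly: hepatic side effect score for hepatomegaly, taken from the training set of the DILIps drug-induced liver injury prediction system; call rule not given here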;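 on HepSE liver fatty: hepatic side effect score for fatty liver, taken from the DILIps training set for predicting drug-induced liver injury; call rule not given here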
[5] = tested on: Hepatotoxicity; remark: listed apart in the source
[6] = tested on: Hepatotoxicity; remark: listed apart in the source
[7] = tested on: Hepatotoxicity; remark: listed apart in the source
[8] = tested on: Hepatotoxicity; remark: listed apart in the source
[9] = tested on: Hepatotoxicity; remark: listed apart in the source
[10] = tested on: Hepatotoxicity; remark: listed apart in the source
[11] = tested on: Hepatotoxicity; remark: listed apart in the source
[12] = tested on: Hepatotoxicity; remark: listed apart in the source
[13] = tested on: Hepatotoxicity; remark: listed apart in the source
[14] = tested on: Hepatotoxicity; remark: listed apart in the source

Structure (SMILES)	HepSE_liver fatty [1]	HepSE_hepatomegaly [2]	HepSE_elevated liver function tests [3]	HepSE_cholecystitis [4]	HepSE_hepatic necrosis [5]	HepSE_cholelithiasis [6]	HepSE_bilirubinemia [7]	HepSE_Combined Scores [8]	HepSE_jaundice [9]	HepSE_hepatic failure [10]	HepSE_cirrhosis [11]	HepSE_liver function tests abnormal [12]	HepSE_liver disease [13]	HepSE_hepatitis [14]
C[C@@H](O)[C@H]1C(=O)N2C(C(=O)O)=C(S[C@@H]3CN[C@H](C(=O)N(C)C)C3)[C@H](C)[C@H]12 [MEROPENEM]	0	0	0	0	0	0	0	3	1	1	0	0	0	1
C[C@](N)(Cc1ccc(O)c(O)c1)C(=O)O [METHYLDOPA]	0	0	0	0	0	0	0	3	1	0	0	1	0	1
CN1CCN(C2=Nc3cc(Cl)ccc3Nc3ccccc32)CC1 [CLOZAPINE]	0	0	0	0	0	0	0	2	1	0	0	0	0	1
CO[C@]12CC[C@@]3(C[C@@H]1[C@](C)(O)C(C)(C)C)[C@H]1Cc4ccc(O)c5c4[C@@]3(CCN1CC1CC1)[C@H]2O5 [BUPRENORPHINE]	0	0	0	0	0	0	0	0	0	0	0	0	0	0
CC#C[C@]1(O)CC[C@H]2[C@@H]3CCc4cc(O)ccc4[C@H]3CC[C@@]21C [ESTROGEN]	0	0	0	0	0	0	0	1	1	0	0	0	0	0
COc1cc2c(cc1OC)[C@@H](Cc1cc(OC)c(OC)c(OC)c1)[N+](C)(CCCOC(=O)CC/C=C/CCC(=O)OCCC[N+]1(C)CCc3cc(OC)c(OC)cc3[C@H]1Cc1cc(OC)c(OC)c(OC)c1)CC2 (some centres not stated)	0	0	0	0	0	0	0	0	0	0	0	0	0	0
C[C@H]1c2cccc(O)c2C(=O)C2=C(O)[C@]3(O)C(=O)C(C(N)=O)=C(O)[C@@H](N(C)C)[C@@H]3[C@@H](O)[C@@H]21.O [DOXYCYCLINE]	0	0	0	0	0	0	0	0	0	0	0	0	0	0
CN1CCN(C2=Nc3ccccc3Oc3ccc(Cl)cc32)CC1 [LOXAPINE]	0	0	0	0	0	0	0	2	1	0	0	0	0	1
N[C@@H](C(=O)N[C@@H]1C(=O)N2C(C(=O)O)=C(Cl)CS[C@H]12)c1ccccc1 [CEFACLOR ANHYDROUS]	0	0	0	0	0	0	0	2	1	0	0	0	0	1
O=C(O)CCCc1ccc(N(CCCl)CCCl)cc1 [CHLORAMBUCIL]	0	0	0	0	0	0	0	1	1	0	0	0	0	0
CCOC(=O)[C@H](CCc1ccccc1)N[C@@H](C)C(=O)N1Cc2cc(OC)c(OC)cc2C[C@H]1C(=O)O [MOEXIPRIL]	0	0	0	0	0	0	0	1	0	0	0	0	0	1
CC(CN(C)C)CN1c2ccccc2CCc2ccccc21 (configuration not stated) [TRIMIPRAMINE]	0	0	0	0	0	0	0	1	1	0	0	0	0	0
CC(C)[C@H](N)C(=O)OCCOCn1cnc2c(=O)[nH]c(N)nc21 [VALACYCLOVIR]	0	0	0	0	0	0	0	1	0	0	0	0	0	1
